Results: PubChem BioAssay (NCI)
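Protocol summary: plate cells (96-well), add compound at 5 concentrations, incubate 48 h, interpolate endpoints linearly. GI50 = concentration required for 50% inhibition of growth. Definition used: TGI = concentration required for complete inhibition of growth.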

Assays:
Assay in all cases: NCI tumour cell line growth inhibition, 48 h
KM12 colon = system: KM12 colon
UACC-257 melanoma = system: UACC-257 melanoma
HOP-92 NSCLC = system: HOP-92 NSCLC
A549 NSCLC = system: A549 NSCLC
SW-620 colon = system: SW-620 colon
SF-539 CNS = system: SF-539 CNS
UO-31 renal = system: UO-31 renal
MCF7 breast = system: MCF7 breast
MDA-MB-231 breast = system: MDA-MB-231 breast
786-0 renal = system: 786-0 renal

Compound | GI50 (KM12 colon) [µM] | TGI (KM12 colon) [µM] | GI50 (UACC-257 melanoma) [µM] | TGI (UACC-257 melanoma) [µM] | GI50 (HOP-92 NSCLC) [µM] | TGI (HOP-92 NSCLC) [µM] | GI50 (A549 NSCLC) [µM] | TGI (A549 NSCLC) [µM] | GI50 (SW-620 colon) [µM] | TGI (SW-620 colon) [µM] | GI50 (SF-539 CNS) [µM] | TGI (SF-539 CNS) [µM] | GI50 (UO-31 renal) [µM] | TGI (UO-31 renal) [µM] | GI50 (MCF7 breast) [µM] | TGI (MCF7 breast) [µM] | GI50 (MDA-MB-231 breast) [µM] | TGI (MDA-MB-231 breast) [µM] | GI50 (786-0 renal) [µM] | TGI (786-0 renal) [µM]
C[n+]1cc2cc3c(cc2c2ccccc21)OCO3 | 1.22 | 10.1 | 3.85 | 14 | 2.77 | 23.8 | 2.41 | 14.4 | 4.52 | > 100 | 4.83 | 23.8 | 27.8 | > 100 | 2.61 | 17.3 | 10.8 | 54 | 12.4 | > 100
COC(=O)C1=CO[C@@H](OC2OC(CO)C(O)C(O)C2O)[C@@H]2[C@H](C)[C@@H](O)[C@@H](O)[C@]12O (stereo partly drawn) |  | > 100 |  | > 100 |  | > 100 |  | > 100 |  | > 100 |  | > 100 |  | > 100 |  | > 100 |  | > 100 |  | > 100
O=C1Nc2ccc(CN3CCOC3=O)cc2/C1=C/c1cc(CN2CCOCC2)c[nH]1 | 4.08 | > 100 | 52 | > 100 | 32 | > 92.3 | 49.7 | > 100 | 37.9 | > 100 | 53.9 | > 100 | 21.5 | > 94.7 | 24.1 | > 91.9 | 78.8 | > 100 | 62.5 | > 100
CCOC(=O)C(O)Cc1cnc2ccccc2n1 (stereo not drawn) |  | > 100 |  | > 100 |  | > 100 |  | > 100 |  | > 100 |  | > 100 |  | > 100 |  | > 100 |  | > 100 |  | > 100
Cn1ccc2c3c(=O)cc[nH]c3ccc21 | > 100 | > 100 | > 100 | > 100 | 69.2 | > 100 | > 100 | > 100 | > 100 | > 100 | > 100 | > 100 | > 100 | > 100 | > 100 | > 100 | > 100 | > 100 | > 100 | > 100
Cc1cc(S(=O)(=O)Nc2nc3ccccc3[nH]2)c(SCc2ccccc2)cc1Cl | 40.4 | > 100 | > 100 | > 100 | 62.2 | > 100 | > 100 | > 100 | > 100 | > 100 | 19.8 | 52.8 | > 100 | > 100 | > 100 | > 100 | 18.2 | 51.5 | 62.9 | > 100
c1ccc2c(-c3cnn4cc(-c5ccc(N6CCNCC6)cc5)cnc34)ccnc2c1 | 1.15 | 2.39 | 1.75 | 3.29 | 1.59 | 3.03 | 0.766 | 1.99 | 0.335 | 1.37 | 1.31 | 2.6 | 1.19 | 2.43 | 0.429 | 1.7 | 1.48 | 3.03 | 0.527 | 1.03
Oc1cc2c(cc1C(c1ccc3c(c1)OCO3)N1CCN(C(c3ccc4c(c3)OCO4)c3cc4c(cc3O)OCO4)CC1)OCO2 (stereo not drawn) |  | 30.8 |  | 33.4 |  | 78.3 |  | > 100 |  | 25.3 |  | 33.9 |  | 29.3 |  | > 100 |  | 29.1 |  | 25.8
O=C(c1ccccc1)c1ccc(O)c2ncccc12 | 3.25 | 16.9 | 5.75 | > 100 | 2.89 | 16.5 | 9.02 | > 100 | 4.07 | 17.9 | 4.66 | 21.3 | 1.28 | 13.5 | 2.93 | 9.08 | 3.6 | 64.3 | 5.09 | 26.5
CNC(C)[C@H]1CCC2C3CCC4C[C@@H](N(C)C(=O)c5ccccc5)CC[C@]4(C)C3CC[C@@]21C (stereo partly drawn) | 1.44 | 5.83 | 2.19 | 5.53 | 0.384 | 3.52 | 2.31 | 7.29 | 0.854 | 2.9 | 0.739 | 2.01 | 0.794 | 2.69 | 0.94 | 3.35 | 1.6 | 3.87 | 1.3 | 2.82
COc1ccc(C2CC(c3cccc(OC)c3)=NN2C(=O)c2cc(OC)c(OC)c(OC)c2)cc1 (stereo not drawn) | 0.717 | > 100 | 83.8 | > 100 | 1.04 | > 100 | 2.25 | > 100 | 0.881 | > 100 | 1.62 | 5.3 | 1.59 | > 100 | 0.367 | > 100 | 1.94 | > 100 | 2.25 | > 100
Cc1[nH]c(=O)nc(N/N=C/c2ccc(Cl)cc2)c1C(=O)Nc1ccc(Cl)cc1 |  | > 100 |  | > 94.6 |  | 77.8 |  | > 63.1 |  | > 89.3 |  | 67.6 |  | > 100 |  | > 100 |  | 26.2 |  | 47.6
Nc1cc(N)cc(Cc2ccccc2)c1 |  | > 100 |  | > 100 |  | > 100 |  | > 100 |  | > 100 |  | > 100 |  | > 100 |  | > 100 |  | > 100 |  | > 100
O=C(O)c1cc2cc(O)ccc2[nH]1 | > 100 | > 100 | > 100 | > 100 | > 100 | > 100 | > 100 | > 100 | > 100 | > 100 | > 100 | > 100 | > 100 | > 100 | > 100 | > 100 | > 100 | > 100 | > 100 | > 100
COc1ccc(C2SCC(=O)N2NC(=O)C(O)c2ccccc2)cc1 (stereo not drawn) | > 100 | > 100 | > 100 | > 100 | > 100 | > 100 | > 100 | > 100 | > 100 | > 100 | > 100 | > 100 | > 100 | > 100 | > 100 | > 100 | > 100 | > 100 | > 100 | > 100
CSC(=NC#N)S/C=C/C(=O)c1cccc2ccccc12 | 29.1 | > 100 | 21.3 | 47.2 | 19.3 | 66.6 | 29.3 | > 100 | 36.9 | > 100 | 17.6 | 68.2 | 26 | 73.5 | 30.9 | > 100 | 26.2 | 75.4 | 16.2 | 43.5
CCOC(=O)Nc1ccc(C(=O)/C=C/c2ccccc2)cc1 | 4.8 | 17.6 | 55 | > 100 | 11.2 | 66.5 | 30.1 | > 100 | 19.2 | > 100 | 20.2 | 46.3 | 26.9 | > 100 | 3.14 | 33.9 | 33.4 | > 100 | 26.3 | 81.5
CC(=O)[O][Hg][CH2]C1(C)COC(C)([CH2][Hg][O]C(C)=O)CO1 (stereo not drawn) | 4.1 | 8.4 | 4.51 | 10.5 | 5.62 | 19.1 | 7.79 | 38.4 | 1.51 | 3.11 | 17.7 | 32.6 | 5.07 | 9.83 | 0.646 | 2.32 | 12.5 | 29.2 | 16.8 | 31
CC(C)C[C@H]1C(=O)N2CCC[C@H]2[C@]2(O)O[C@](NC(=O)[C@@H]3C=C4c5cccc6[nH]c(Br)c(c56)C[C@H]4N(C)C3)(C(C)C)C(=O)N12 |  | > 100 |  | > 100 |  | > 100 |  | > 100 |  | > 100 |  | > 100 |  | > 100 |  | > 100 |  | > 100 |  | > 100
Cc1cccc2c(N=Nc3ccccc3[N+](=O)[O-])c(O)[nH]c12 |  | > 58.6 |  | > 53.5 |  | 8.16 |  | > 61.7 |  | > 74.6 |  | 8.96 |  | 22.5 |  | 24.3 |  | 6.58 |  | 11.8
CN(N=O)C(=O)Nc1ccc(C(=O)O)cc1 |  | > 100 |  | > 100 |  | > 100 |  | > 100 |  | > 100 |  | > 100 |  | > 100 |  | > 100 |  | > 100 |  | > 100
COc1ccc(Nc2ncc(-c3ccccc3)o2)cc1OC | 4.35 | > 25 | > 25 | > 25 | 6.04 | > 25 | 15.2 | > 25 | 14.9 | > 25 | 5.34 | > 25 | 9.29 | > 25 | > 25 | > 25 | > 25 | > 25 | 11.6 | > 25
C=C1C(=O)O[C@H]2[C@H]1CC/C(COC(=O)C(=O)c1c[nH]c3ccc(Cl)cc13)=C\CC[C@@]1(C)O[C@@H]21 | 3.21 | 11.6 | 2 | 4.13 | 1.86 | 3.42 | 2.52 | 6.03 | 1.67 | 10.3 | 1.74 | 3.32 | 1.22 | 2.53 | 0.779 | 4.27 | 1.84 | 4.03 | 1.53 | 2.93
N#CSCC1CC(O)(c2ccccc2)CC(c2ccc(Cl)cc2)O1 (stereo not drawn) | 1.77 | 3.36 | 3.29 | 9.32 | 2.21 | 5.58 | 3.74 | 17.3 | 1.83 | 3.35 | 1.54 | 3.32 | 1.61 | 4.84 | 1.84 | 4.92 | 2.8 | 11.2 | 2.14 | 4.66
COc1cc2oc(-c3cccc(C(=O)Nc4ccc(C)cc4)c3)cc(=O)c2c(OC)c1OC | 3.66 | > 100 | 1.92 | 4.5 | 1.55 | 5.46 | 3.86 | > 100 | 4.73 | > 100 | 2.58 | 10.5 | 3.5 | > 100 | 2.53 | > 100 | 0.468 | 3.23 | 2.06 | 6.11
CC(=O)OC1CC2(O)C(CCC3(C)C(c4ccc(=O)oc4)CCC32O)C2(C)CCC(OC3OC(CO)C(O)C(O)C3O)C=C12 (stereo not drawn) | 0.0416 | 0.2 | 0.0383 | 0.206 | 0.0494 | 0.318 | < 0.01 | 0.0278 | 0.0275 | 0.144 | 0.0144 | 0.0331 | 0.0182 | 0.0466 | 0.0183 | 0.167 | 0.0684 | 0.396 | 0.0129 | 0.03
Cc1ccc(S(=O)(=O)NNC(C[N+](=O)[O-])c2ccccc2)cc1 (stereo not drawn) |  | > 100 |  | 37.5 |  | > 100 |  | > 100 |  | > 100 |  | 81.5 |  | 48.6 |  | 21.6 |  | 81.3 |  | > 100
C[C@@H]1CC[C@@H]2[C@@H]1[C@H](OC(=O)c1ccc3ccccc3c1)[C@]1(C3CCCCC3)C[C@@H](OC(=O)CO)[C@@]2(C)O1 | 11.1 | 26.5 | 12.9 | 26.3 | 3.15 | 15.4 | 8.12 | 21.7 | 13 | 30.4 | 13.7 | 27.9 |  |  | 3.44 | 16.5 | 13.6 | 29.3 | 5.41 | 20
